Measured values taken from patent publication US20230090389A1 (Novartis AG, priority 2020, published 2023).

Key:
[1] = system: BRAF mutant human cell line xenograft HT29; assay: BRAF mutant human cell line xenograft HT29 in mice; format: in vivo; conditions: clinically relevant doses
[2] = system: six BRAFV600E CRC cell lines; assay: growth inhibition (CellTiter-Glo, 7 days) in six BRAF-mutant CRC cell lines; format: cell-based; conditions: seven treatment days; dabrafenib 30 nM, Compound A 300 nM, compound B 1.1 μM
Protocol: Compound A: selective ATP-competitive ERK1 and ERK2 kinase inhibitor. Compound B: selective allosteric inhibitor of SHP2. The compounds were dissolved in 100% DMSO and stored at -20° C. as 10 mM stock solutions.
In this study, we used six BRAF-mutant colorectal cancer cell lines. We acquired all the cell lines from ATCC and cultured them at 37° C. 5% CO2 in the recommended media conditions: Colo205, LIM2405, SNUC5 and SW1417: RPMI 1640 (Amimed, #1-41F01-I) supplemented with 1% L-glutamine, 10 mM HEPES (Amimed, #5-31F00-H), 1% Na-pyruvate (Amimed, #5-60F00-H), 10% FCS. MDST8: DMEM high glucose (Amimed, #1-26F01-I) supplemented with 1% L-glutamine, 10% FCS. RKO: EMEM (Amimed, #1-31S01-1) supplemented with 1% L-glutamine, 10% FCS. […]
Seven days after treatment initiation, cell growth was determined using CellTiter-Glo® (Promega, #G7573), which measures the amount of ATP in the well. […] Cell lysis was induced for two minutes on an orbital shaker, the plates were incubated at room temperature for ten minutes, and luminescence was recorded.
To summarize the data of this study clearly, the percentage of growth inhibition versus DMSO (% GI) at single compound concentrations were reported. […] Raw data values were normalized to day 0, the time of treatment initiation, so that the % GI could be calculated. […]

SMILES: CNC[C@@H](NC(=O)c1ccc(-c2nc([C@H]3CC[C@H](O)[C@@H](F)C3)cnc2N)cc1F)c1cc(F)cc(Br)c1 [Compound A, 4-(3-amino-6-((1S,3 S,4S)-3-fluoro-4-hydroxycyclohexyl)pyrazin-2-yl)-N-((S)-1-(3-bromo-5-fluorophenyl)-2-(methylamino)ethyl)-2-fluorobenzamide]
- anti-tumor response, T/C [1]: 54 % T/C

SMILES: C[C@@H]1OCC2(CCN(c3cnc(Sc4ccnc(N)c4Cl)c(N)n3)CC2)[C@@H]1N [Compound B, (3S,4S)-8-(6-amino-5-((2-amino-3-chloropyridin-4-yl)thio)pyrazin-2-yl)-3-methyl-2-oxa-8-azaspiro[4.5]decan-4-amine]
- cell growth inhibition (% GI vs DMSO) [2]: no effect

SMILES: CC(C)(C)c1nc(-c2cccc(NS(=O)(=O)c3c(F)cccc3F)c2F)c(-c2ccnc(N)n2)s1 [Dabrafenib, N-(3-(5-(2-aminopyrimidin-4-yl)-2-(tert-butyl)thiazol-4-yl)-2-fluorophenyl)-2,6-difluorobenzenesulfonamide]
- anti-tumor response, T/C [1]: 59 % T/C

SMILES: CC(=O)Nc1cccc(-n2c(=O)n(C3CC3)c(=O)c3c(Nc4ccc(I)cc4F)n(C)c(=O)c(C)c32)c1 [Trametinib]
- anti-tumor response, T/C [1]: 48 % T/C
